Entries after “also recorded” stand apart in the source; their conditions may differ.
What was measured:
[1] = Neu5Ac/Neu5Gc glycan microarray analysis; format: binding; conditions: ZBiotech Neu5Gc/Neu5Ac N-Glycan Array, FIG. 1A
Source text: A Neu5Ac/Neu5Gc glycan microarray (as previously used in Wang et al, 2018, Biophys Biochem Res Commun 500:765-771; ZBiotech Neu5Gc/Neu5Ac N-Glycan Array) was utilised to determine the binding of SubBA12 to sialylated glycans with SubB2M used as a control. This glycan array comprises over 40 match pairs of glycans covalently linked to the array slide surface. Each pair of glycans is identical apart from the presence of either a Neu5Ac or Neu5Gc moiety.
Neu5Ac/Neu5Gc glycan array slides were purchased from Z-Biotech (Aurora, Colorado, USA, https://www.zbiotech.com/neu5gc-neu5ac-n-glycan-array.html). A 16-subarray slide array was used and glycan array analysis of SubB2M and SubBA12 was performed as per the manufacturer's protocols. Arrays were scanned using a Innocan 1100AL laser scanner and analysed using Mapix array analysis software.

[2] = SPR analysis of glycan binding (all tested glycans); conditions: lectin immobilized on CM5 chip; glycans up to a concentration of 20 μM; FIG. 1B
Method: SubBA12 was analysed for binding to a range of Neu5Ac, Neu5Gc and non-sialylated synthetic oligosaccharides using SPR.
For glycan analysis, SubB2M was immobilized through flow cells 2 and 3 and SubBA12 was immobilized through flow cell 4 (capture levels: 5000-6000 Response Units (RU)) onto a series S sensor chip CM5 (GE) using the NHS capture kit. Flow cell 1 was run as a blank immobilization. Glycans purchased from Chemily Glycoscience (Atlanta, GA) were analysed across a five-fold dilution series in PBS at a maximum concentration of 20 μM. Analysis was run using single cycle analysis and double reference subtraction on the Biacore S200 evaluation software.

[3] = Ser12>Ala12 mutation; described previously (Byres et al, 2008); cited from earlier work

SubBA12: mutant form of SubB (Ser12>Ala12) having the amino acid sequence of SEQ ID NO: 4; lacks or has substantially reduced sialic acid binding
binding to Neu5Ac-containing glycans on glycan array [1]: Essentially no binding; also recorded: little to no recognition
binding to Neu5Gc-containing glycans on glycan array [1]: Essentially no binding; also recorded: little to no recognition
binding (concentration dependent interaction) to any of the tested glycans by SPR [2]: No binding; also recorded: No concentration dependent interactions
binding to sialylated glycans [3]: cannot bind

From patent US20240239846A1, “METHODS OF ANALYSING A SAMPLE” (THE UNIVERSITY OF ADELAIDE, priority 2021, published 2024)
